Test results taken from patent US9855257B2, “4-alkynyl imidazole derivative and medicine comprising same as active ingredient” (KAKEN PHARMACEUTICAL CO., LTD., priority 2013, dated 2018).

Experiments:
[1] = tested on: Carrageenin Induced Paw Edema in Rats; assay: Anti-inflammatory effect on carrageenin induced paw edema in rats; assay type: in vivo, rat; details: for Percent paw edema suppression: Wistar male rats, oral 10 mg/5 mL/kg one hour before carrageenin, paw volume four hours after treatment, means of 5˜8 cases
Experimental: Test for Evaluating the Anti-Inflammatory Effect on Carrageenin Induced Paw Edema in Rats
The animals were Wistar male rats (7-week old). The paw volume of the right hind leg was measured with a paw volume meter (PLETHYSMOMETER, Ugo Basile Model 7141 or 7150). One hour after orally administering a test compound at a dose of 10 mg/5 mL/kg, a carrageenin treatment group was given a 1 w/v % carrageenin solution and a non-treatment group given distilled water, each administered subcutaneously to the footpad of the right hind leg at a dose of 0.1 mL. Four hours after the treatment with carrageenin (or distilled water), the paw volume was measured and the change in paw volume from the pre-treatment value was calculated. The anti-inflammatory effect of the test compound was confirmed using the percent paw edema suppression (see below) as an indicator. In the present experimental models, Cerecoxib (COX inhibitor already available on the market as an anti-inflammatory/analgesic agent) was used as a positive control.

[2] = tested on: Adjuvant Induced Arthritis in Rats; assay: Anti-inflammatory and analgesic effects on adjuvant induced arthritis in rats; assay type: in vivo, rat; set-up: Percent Effectiveness: scale not given: direction of the effect not stated beside the values; details: Lewis male rats, oral 0.3 mg/kg once a day, day 9 to day 17 after adjuvant; for Percent paw edema suppression: measured at day 18, means of 8˜10 cases; for Percent Effectiveness: pain threshold at day 18, 8˜10 cases
Experimental: Test for Evaluating Anti-Inflammatory and Analgesic Effects on Adjuvant Induced Arthritis in Rats
The animals were Lewis male rats (6-week old). An adjuvant solution (2 mg/mL) was administered intradermally to the footpad of the left hind leg of each animal at a dose of 0.1 mL to create an arthritis model. Paw volume was measured with a paw volume meter (PLETHYSMOMETER, Ugo Basile Model 7141). For evaluation of pain thresholds, a probe fitted to the sensor site of Pressure Application Measurement (PAM, Ugo Basile Model 38500) was used to turn the foot sole of a rat upward (dorsiflexion) until it gave an indication of pain or discomfort (vocalization) and the load being applied was measured. Eight days after the treatment with the adjuvant, the paw volume and pain threshold of each treated foot were measured and the animals were grouped for oral administration of each test compound (0.3 mg/kg) which was performed for nine days on a once-a-day schedule starting at day 9 and ending at day 17 after the treatment. At day 18 after the treatment, the paw volume and pain threshold of each […] foot were measured.
The anti-inflammatory effect of the test compound was confirmed using the percent paw edema suppression as an indicator. Percent paw edema suppression (%)=[(paw volume change in the control group−paw volume in each treatment group)/(paw volume change in the control group−paw volume change in the non-treatment group)]×100
As for the analgesic effect, the animals in the test compound group that had nociceptive thresholds greater than [(the mean nociceptive threshold of the control group)+2×standard deviation] were found “effective animals” and the percent effectiveness of each compound was calculated.

[3] = tested on: Carrageenin Induced Hyperalgesia in Rats; assay: Analgesic effect on carrageenin induced hyperalgesia in rats; assay type: in vivo; details: Rattus norvegicus, 2 h; SD male rats, oral 10 mg/5 mL/kg six hours after carrageenin, nociceptive threshold (Randall-Selitto) two hours after administration; 5˜7 cases; read-out: Percent Effectiveness
Experimental: Test for Evaluating Analgesic Effect on Carrageenin Induced Hyperalgesia in Rats
The animals were SD male rats (5-week old). Before treatment with carrageenin (or distilled water), the rats were measured for nociceptive thresholds in their right hind leg by the Randall-Selitto method and divided into a carrageenin treatment group and a non-treatment group to provide uniformity in nociceptive threshold. The carrageenin treatment group was given a 1 w/v % carrageenin solution and the non-treatment group given distilled water, each administered subcutaneously to the footpad of the right hind leg at a dose of 0.1 mL. Five hours after the treatment, the nociceptive thresholds were measured and the individuals with decreased thresholds were selected and grouped such that there was no inter-group difference in threshold. Six hours after the treatment, each test compound was orally administered at a dose of 10 mg/5 mL/kg. The control group was administered 0.5% methylcellulose. Two hours after the administration of the test compound (8 hours after the treatment), the nociceptive threshold was measured. The animals in the test compound group that had nociceptive thresholds greater than [(the mean nociceptive threshold of the control group)+2×standard deviation] were found “effective animals” and the percent effectiveness of each compound was calculated.

[4] = biological target: T1, rat EP4 receptor (Rattus norvegicus, UniProt P43114); assay: Rat EP4 receptor antagonistic action by the reporter assay method; assay type: cell-based; details: COS-7 cells expressing rat EP4 receptor, CRE-LUC reporter, PGE2 1×10^−8 mol/L; geometric mean of three cases; read-out: Intensity of EP4 Receptor Antagonistic Activity IC50
T1 construct: its translated region was integrated into the expression vector pShooter (Invitrogen); expressed in transfected cells; host or cells: COS-7 cells (Cercopithecus aethiops kidney), transiently co-transfected with ratEP4-pShooter and a CRE-LUC reporter vector
Experimental: Test for Evaluating the Rat EP4 Receptor Antagonistic Action by the Reporter Assay Method
The first step was the cloning of the rat EP4 receptor. Total RNA was prepared from the kidney extracted from rats. With the total RNA used as a template, the rat EP4 receptor gene was cloned by RT-PCR and its translated region was integrated into the expression vector pShooter (Invitrogen) to prepare a rat EP4 receptor expressing vector (ratEP4-pShooter).
In the next step, rat EP4 receptor expressing cells for use in the reporter assay were prepared. COS-7 cells (derived from the kidney of Cercopithecus aethiops) were cultured in Dulbecco's Modified Eagle Medium (DMEM) (supplemented with 10% fetal bovine serum) in a 75-cm^2 cell culture flask. After the cells proliferated to a subconfluent state, the medium was removed and rinsed with phosphate buffered physiological saline (PBS). Trypsin-EDTA and a growth medium were used to recover the cells, which were then centrifuged. The supernatant was removed and the cells were suspended in DMEM. The cell suspension was seeded on a 96-well plate at a density of 2×10^4 cells/100 μL/well and cultured. The DMEM was mixed with Plus reagent, Lipofectamine 2000, the rat EP4 receptor expressing vector (ratEP4-pShooter) and a CRE-LUC reporter vector (CLONTECH) to prepare a transfection solution. Three hours after the seeding of the cells, 50 μL of the medium was removed and 50 μL/well of the transfection solution was added, followed by culture overnight. Negative control cells were prepared using pShooter in place of the receptor expressing vector. The cells were seeded on a 96-well plate for reporter assay and cultured.
The medium on the 96-well plate was removed and a test compound was added in an amount of 50 μL/well. After ca. 30-min culture, a PGE2 solution (2×10^−8 mol/L) was added in an amount of 50 μL/well (final concentration of PGE2: 1×10^−8 mol/L). As a PGE2-free control, there were provided wells to which a test medium had been added in an amount of 50 μL/well. About three hours later, the medium was removed and reporter assay was performed in accordance with the protocol accompanying the Steady-Glo Luciferase Assay System kit. Luminous intensity was measured with a microplate reader (Fusion-FPα, PerkinElmer) and EP4 receptor antagonistic activity (%) was determined by the following calculation formula: EP4 receptor antagonistic activity (%)=[1−(RLU(A,X)−RLU(0))/(RLU(PGE2)−RLU(0))]×100 RLU(A,X): Luminous intensity expressed in relative luminescence units (RLU) for the case where the test compound (A) X (mol/L) and PGE2 10^−8 mol/L were both added; RLU(PGE2): Luminous intensity for the case where only PGE2 10^−8 mol/L was added; RLU(0): Luminous intensity for the case where neither test compound nor PGE2 was added.
In addition, a dose-response curve was plotted from the EP4 receptor antagonistic activities at varying concentrations of each test compound and using the following approximation formula, the IC50 (the concentration of the test compound required to inhibit the PGE2 inducing activity by 50%) was calculated to determine the intensity of the compound's EP4 receptor antagonistic activity. The results are shown in Table 2: Y=Bottom+(Top−Bottom)/{1+10^(Log IC50−Log X)} Bottom: 0 Top: 100 X: Concentration of the test compound (mol/L) Y: EP4 receptor antagonistic activity (%)

[5] = tested on: Monoiodoacetic Acid Induced Joint Pain in Rats; assay: Analgesic effect on monoiodoacetic acid induced joint pain in rats; assay type: in vivo, rat; details: SD male rats, oral 10 mg/kg three days after MIA treatment, measured two hours later with incapacitance tester
Experimental: Test for Evaluating Analgesic Effect on Monoiodoacetic Acid Induced Joint Pain in Rats
The animals were SD male rats (6 week-old). The right knee of each animal was treated intraarticularly with monoiodoacetic acid (MIA) to induce joint pain. Three days after the MIA treatment, a test compound (10 mg/kg) was administered orally and two hours later, the loads on the right and left hind legs were measured with an incapacitance tester (Linton).

T1 sequence (P43114 whole entry): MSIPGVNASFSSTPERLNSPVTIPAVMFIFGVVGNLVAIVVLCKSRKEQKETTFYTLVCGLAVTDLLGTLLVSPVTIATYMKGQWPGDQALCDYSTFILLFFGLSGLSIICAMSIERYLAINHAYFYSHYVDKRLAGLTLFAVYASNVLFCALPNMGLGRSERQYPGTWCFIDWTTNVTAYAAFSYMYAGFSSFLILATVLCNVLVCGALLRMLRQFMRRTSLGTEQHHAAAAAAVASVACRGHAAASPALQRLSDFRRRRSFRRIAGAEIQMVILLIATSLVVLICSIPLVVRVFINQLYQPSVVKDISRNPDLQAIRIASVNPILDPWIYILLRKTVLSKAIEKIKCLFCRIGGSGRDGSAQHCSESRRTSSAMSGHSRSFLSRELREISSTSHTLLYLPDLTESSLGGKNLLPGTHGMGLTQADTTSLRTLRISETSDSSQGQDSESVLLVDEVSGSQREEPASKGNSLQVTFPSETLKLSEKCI

`Cc1ccc(-c2cc(C(F)(F)F)nn2-c2ccc(S(N)(=O)=O)cc2)cc1` [Cerecoxib, reference compound] was tested, and the “Percent paw edema suppression at the maximum efficacy” value ([1]; positive control, maximum efficacy at doses of 10˜30 mg/kg) was 32˜37%.
`COC(C)(C)C#Cc1nc(Cl)n(Cc2ccc(C(F)(F)F)cc2)c1C(=O)NC[C@H]1CC[C@H](C(=O)O)CC1` [Compound 10, trans-4-({2-Chloro-4-(3-methoxy-3-methyl-1-butyn-1-yl)-1-[4-(trifluormethyl)benzyl]-1H-imidazole-5-carboxamido}methyl)cyclohexanecarboxylic acid] was tested, and the “Percent paw edema suppression” value [1] was 26%, the “Percent paw edema suppression” value [2] was 82% and the “Percent Effectiveness” value [2] was 78%. For the same compound, the responders at 10 mg/kg [3] was 100%, the IC50 [4] was 10.9 nM and the “suppression of right knee joint pain (ratio between the loads on the right and left hind legs)” value [5] was “suppression of right knee joint pain was confirmed”.
In the case of `COC(C)(C)C#Cc1nc(Cl)n(Cc2ccc(C)cc2)c1C(=O)NC[C@H]1CC[C@H](C(=O)O)CC1` [Compound 22, trans-4-{[2-Chloro-4-(3-methoxy-3-methyl-1-butyn-1-yl)-1-(4-methylbenzyl)-1H-imidazole-5-carboxamido]methyl}cyclohexanecarboxylic acid], the “Percent paw edema suppression” value [1] is reported as 19%, the “Percent paw edema suppression” value [2] is reported as 90% and the “Percent Effectiveness” value [2] is reported as 60%. The responders at 10 mg/kg [3] was 83%, the IC50 [4] was 11.8 nM and the “suppression of right knee joint pain (ratio between the loads on the right and left hind legs)” value [5] was “suppression of right knee joint pain was confirmed”.
With `CC(C)(O)C#Cc1nc(Cl)n(CCOc2ccc(Cl)cc2)c1C(=O)NCC1CCC(C(=O)O)CC1` (stereo not shown) [Compound 39] the “Percent paw edema suppression” value [1] was 22%, the responders at 10 mg/kg [3] was 100% and the IC50 [4] was 35 nM.
For `COC(C)(C)C#Cc1nc(Cl)n(CCOc2ccc(Cl)cc2)c1C(=O)NCC1CCC(C(=O)O)CC1` (stereo not shown) [Compound 40], the “Percent paw edema suppression” value [1] was 29%, the responders at 10 mg/kg [3] was 100% and the IC50 [4] was 9.5 nM.
For `COC(C)(C)C#Cc1nc(Cl)n(Cc2ccc(C(F)(F)F)cc2)c1C(=O)NC1(c2ccc(C(=O)O)cc2)CC1` [Compound 42, 4-(1-{2-Chloro-4-(3-methoxy-3-methyl-1-butyn-1-yl)-1-[4-(trifluoromethyl)benzyl]-1H-imidazole-5-carboxamido}cyclopropyl)benzoic acid], the “Percent paw edema suppression” value [1] was 28%, the “Percent paw edema suppression” value [2] was 88% and the “Percent Effectiveness” value [2] was 90%. For the same compound, the responders at 10 mg/kg [3] was 83%, the IC50 [4] was 1.7 nM and the “suppression of right knee joint pain (ratio between the loads on the right and left hind legs)” value [5] was “suppression of right knee joint pain was confirmed”.
`COC(C)(C)C#Cc1nc(C2CC2)n(CCOc2ccc(Cl)cc2)c1C(=O)NCc1ccc(C(=O)O)cc1` [Compound 47, 4-({1-[2-(4-Chlorophenoxy)ethyl]-2-cyclopropyl-4-(3-methoxy-3-methyl-1-butyn-1-yl)-1H-imidazole-5-carboxamido}methyl)benzoic acid] was tested, and the “Percent paw edema suppression” value [1] was 26%, the responders at 10 mg/kg [3] was 67% and the IC50 [4] was 34.7 nM.
